Assay [1] addresses T1, BaPanK (type-III pantothenate kinase from Bacillus anthracis) (Bacillus anthracis, UniProt Q81VX4). Format: biochemical.
Assay [2] deals with T1, BaPanK (type-III pantothenate kinase from Bacillus anthracis). Format: biochemical. This is another data set of the same source.

Where two headings read alike, the source gives them in different places.

The term Km denotes the concentration of substrate that gives half-maximal velocity.

T1 sequence (Q81VX4 whole entry, looked up): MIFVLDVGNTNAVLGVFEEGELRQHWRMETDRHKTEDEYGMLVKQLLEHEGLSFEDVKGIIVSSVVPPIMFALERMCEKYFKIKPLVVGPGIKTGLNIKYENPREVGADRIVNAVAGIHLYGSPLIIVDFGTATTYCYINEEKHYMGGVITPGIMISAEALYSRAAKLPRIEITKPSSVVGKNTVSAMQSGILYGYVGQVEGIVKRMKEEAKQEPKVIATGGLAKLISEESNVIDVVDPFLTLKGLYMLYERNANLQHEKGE

For `Nc1ncnc2c1ncn2[C@H]1C[C@H](O)[C@@H](COP(=O)(O)OP(=O)(O)OP(=O)(O)O)O1` [dATP], the Km in assay [1] is 138 µM.

Consider `CC(C)(CO)[C@@H](O)C(=O)NCCC(=O)O` [pantothenate], for which the Km in assay [2] turned out to be 275 µM.

In the case of `Cc1cn([C@H]2C[C@H](O)[C@@H](COP(=O)(O)OP(=O)(O)OP(=O)(O)O)O2)c(=O)[nH]c1=O` [dTTP], the Km in assay [1] is 723 µM.

For `Nc1nc2c(ncn2[C@H]2C[C@H](O)[C@@H](COP(=O)(O)OP(=O)(O)OP(=O)(O)O)O2)c(=O)[nH]1` [dGTP], the Michaelis constant (Km) in assay [1] was determined as 117 µM.

As for `Nc1ncnc2c1ncn2[C@@H]1O[C@H](COP(=O)(O)OP(=O)(O)OP(=O)(O)O)[C@@H](O)[C@H]1O` [ATP], the Michaelis constant (Km) in assay [1] worked out at 510 µM.

The record behind these values is article PMC6074028 (Organic & biomolecular chemistry, 2009).
